In patent US20250019367A1, “Methods for Separation of Enantiomers” (Mirati Therapeutics, Inc., priority 2021, published 2025):

Experiment: Solid form stability versus water activity
Format: physicochemical
Conditions: IPA-water mixtures, water activity αw
From the text: In certain such embodiments, the reacting step (c) occurs in an iso-propyl alcohol (IPA, i-PrOH) solution, or isopropyl alcohol and water solution. […] mixtures of IPA-water (e.g. 90/10 v/v) are preferred to maximize recovery and control API form. […] In certain embodiments, the step (c) solution is optionally seeded with M-enantiomer free base Compound 2.

- water activity at which the form is the most stable: ≥ 0.13
SMILES: Cn1ncc(-c2ccc3c(=O)[nH]nc(CN)c3c2)c1-c1c(F)c(Cl)cc(OC2CC2)c1C#N [Free Base Type A, (2M)-2-(4-(4-(aminomethyl)-1-oxo-1,2-dihydrophthalazin-6-yl)-1-methyl-1H-pyrazol-5-yl)-4-chloro-6-cyclopropoxy-3-fluorobenzonitrile]
